Tests used:
[1] = target: T1, Eukaryotic translation initiation factor 2-alpha kinase 3 (Homo sapiens, UniProt Q9NZJ5); test: Biochemical Assay for PERK
T1 sequence (Q9NZJ5 whole entry): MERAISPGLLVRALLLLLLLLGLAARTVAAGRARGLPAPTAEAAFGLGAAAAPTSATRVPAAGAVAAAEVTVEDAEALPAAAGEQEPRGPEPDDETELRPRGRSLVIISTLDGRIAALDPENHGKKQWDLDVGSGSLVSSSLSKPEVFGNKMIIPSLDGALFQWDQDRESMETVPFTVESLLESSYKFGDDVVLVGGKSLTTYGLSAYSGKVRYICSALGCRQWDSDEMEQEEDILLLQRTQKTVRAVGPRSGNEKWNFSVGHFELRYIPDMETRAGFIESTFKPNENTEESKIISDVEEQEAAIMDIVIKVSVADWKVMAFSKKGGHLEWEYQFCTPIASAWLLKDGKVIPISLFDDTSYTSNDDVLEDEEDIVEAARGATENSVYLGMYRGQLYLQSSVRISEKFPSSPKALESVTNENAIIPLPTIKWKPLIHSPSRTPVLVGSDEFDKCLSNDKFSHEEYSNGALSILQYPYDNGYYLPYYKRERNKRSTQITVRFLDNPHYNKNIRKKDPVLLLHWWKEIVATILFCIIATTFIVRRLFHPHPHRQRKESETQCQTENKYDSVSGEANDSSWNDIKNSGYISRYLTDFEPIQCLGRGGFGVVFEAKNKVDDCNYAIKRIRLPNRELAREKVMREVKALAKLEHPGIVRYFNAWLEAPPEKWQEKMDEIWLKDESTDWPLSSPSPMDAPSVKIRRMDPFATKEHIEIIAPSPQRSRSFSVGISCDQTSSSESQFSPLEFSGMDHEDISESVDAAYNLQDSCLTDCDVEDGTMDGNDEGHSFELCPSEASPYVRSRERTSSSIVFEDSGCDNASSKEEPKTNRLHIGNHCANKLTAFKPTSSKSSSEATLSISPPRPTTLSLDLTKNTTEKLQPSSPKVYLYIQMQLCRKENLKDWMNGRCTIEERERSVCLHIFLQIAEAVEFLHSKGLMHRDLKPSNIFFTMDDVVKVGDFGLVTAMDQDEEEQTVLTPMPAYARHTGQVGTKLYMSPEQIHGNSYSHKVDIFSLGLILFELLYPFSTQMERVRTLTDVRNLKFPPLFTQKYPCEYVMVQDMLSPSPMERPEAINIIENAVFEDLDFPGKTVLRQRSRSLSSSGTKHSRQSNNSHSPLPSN
Method: Activity of PERK kinase was determined spectroscopically using a coupled pyruvate kinase/lactate dehydrogenase assay that continuously monitors the ATP hydrolysis-dependent oxidation of NADH (e.g., Schindler et al. Science (2000) 289: 1938-1942). Assays were conducted in 384-well plates ([…] final volume) using 10 nM PERK (from Beryllium), 0.25 mg/mL Myelin Basic Protein substrate, 1.5 units pyruvate kinase, 2.1 units lactate dehydrogenase, 1 mM phosphoenol pyruvate, 0.28 mM NADH and 1 mM ATP in assay buffer (100 mM Tris, pH 7.5, 15 mM MgCl2, 0.5 mM DTT, 0.004% (w/v) BSA, and 0.004% Triton X-100). Inhibition of PERK was measured by adding serial diluted test compound (final assay concentration of 1% DMSO). A decrease in absorption at 340 nm was monitored continuously for 6 hours at 30° C. on a multi-mode microplate reader (BioTek). The reaction rate was calculated using the 2-3 h time frame. The reaction rate at each concentration of compound was converted to percent inhibition using controls (i.e., reaction with no test compound and reaction with a known inhibitor) and IC50 values were calculated using software routines in Prism (GraphPad software).

eIF-2-alpha kinase GCN2 = eIF-2-alpha kinase GCN2 (Homo sapiens, UniProt Q9P2K8); test: Biochemical Assay for GCN2
Sequence of eIF-2-alpha kinase GCN2 (Q9P2K8 whole entry): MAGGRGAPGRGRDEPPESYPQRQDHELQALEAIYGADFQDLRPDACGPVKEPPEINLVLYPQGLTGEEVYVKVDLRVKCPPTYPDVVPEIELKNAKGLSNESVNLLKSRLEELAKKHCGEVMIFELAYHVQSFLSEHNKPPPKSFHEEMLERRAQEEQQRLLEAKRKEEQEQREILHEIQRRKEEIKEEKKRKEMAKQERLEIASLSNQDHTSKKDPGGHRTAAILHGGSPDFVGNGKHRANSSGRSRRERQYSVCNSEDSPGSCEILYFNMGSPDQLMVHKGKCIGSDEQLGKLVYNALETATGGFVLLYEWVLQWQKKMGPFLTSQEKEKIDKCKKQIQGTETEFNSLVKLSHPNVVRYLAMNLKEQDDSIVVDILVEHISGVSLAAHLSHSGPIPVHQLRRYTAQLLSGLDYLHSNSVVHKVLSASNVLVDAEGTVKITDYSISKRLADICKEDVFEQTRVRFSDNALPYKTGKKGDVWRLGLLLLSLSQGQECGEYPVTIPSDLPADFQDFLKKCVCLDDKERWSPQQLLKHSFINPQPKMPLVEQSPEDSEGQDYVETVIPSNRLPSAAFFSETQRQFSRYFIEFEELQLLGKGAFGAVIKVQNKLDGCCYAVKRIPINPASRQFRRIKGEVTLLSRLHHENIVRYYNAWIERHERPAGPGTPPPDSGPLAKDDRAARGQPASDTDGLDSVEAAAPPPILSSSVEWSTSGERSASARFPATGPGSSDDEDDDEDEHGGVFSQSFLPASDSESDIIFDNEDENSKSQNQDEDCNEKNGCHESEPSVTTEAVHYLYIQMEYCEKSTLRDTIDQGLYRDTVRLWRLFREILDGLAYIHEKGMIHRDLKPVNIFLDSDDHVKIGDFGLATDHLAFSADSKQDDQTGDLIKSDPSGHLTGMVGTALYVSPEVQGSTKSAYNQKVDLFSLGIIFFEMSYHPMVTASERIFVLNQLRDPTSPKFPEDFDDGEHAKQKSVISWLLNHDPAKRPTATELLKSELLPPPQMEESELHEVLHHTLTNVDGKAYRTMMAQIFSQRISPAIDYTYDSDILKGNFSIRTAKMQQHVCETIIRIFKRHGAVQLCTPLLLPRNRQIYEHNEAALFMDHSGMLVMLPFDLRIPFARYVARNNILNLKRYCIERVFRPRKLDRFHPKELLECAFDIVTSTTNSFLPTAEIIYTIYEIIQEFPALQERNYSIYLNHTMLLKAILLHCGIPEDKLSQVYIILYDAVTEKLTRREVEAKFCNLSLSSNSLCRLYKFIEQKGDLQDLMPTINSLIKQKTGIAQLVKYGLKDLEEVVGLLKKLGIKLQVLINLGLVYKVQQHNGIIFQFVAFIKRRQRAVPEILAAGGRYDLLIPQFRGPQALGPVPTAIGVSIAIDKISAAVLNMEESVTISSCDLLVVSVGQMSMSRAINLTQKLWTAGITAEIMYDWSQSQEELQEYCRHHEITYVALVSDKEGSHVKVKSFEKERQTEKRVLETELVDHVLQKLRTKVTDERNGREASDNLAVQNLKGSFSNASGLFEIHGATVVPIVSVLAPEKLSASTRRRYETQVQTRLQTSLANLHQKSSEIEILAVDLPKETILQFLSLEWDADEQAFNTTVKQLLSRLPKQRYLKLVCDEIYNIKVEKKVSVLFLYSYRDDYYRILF
Method: Activity of GCN2 kinase was determined using a TR-FRET kinase activity assay (e.g. Riddle et al. Analytical Biochemistry (2006) 356(1) 108-116). Assays were conducted in 384-well plates (13 μL assay volume) using 2 nM GCN2 (Carna Biosciences), 130 nM GFP-EIf2α (Invitrogen), 0.2 mg/mL E. coli tRNA (sigma) and 1 mM ATP in kinase buffer (Invitrogen). Inhibition of GCN2 was measured by adding serial diluted test compound (final assay concentration of 0.5% DMSO) followed by a 3-hour incubation. Tb-peIF2α (pSer52) antibody (Invitrogen) (2 nM final assay concentration) in kinase buffer containing EDTA (final assay concentration of 20 mM) was added. After a 60 min incubation at room temperature, TR-FRET was monitored using an excitation wavelength of 340 nm and emission wavelengths of 490 nm and 520 nm. The emission ratio (520/490) at each compound concentration of was converted to percent inhibition using controls (i.e., reaction with no test compound and reaction with a known inhibitor) and IC50 values were calculated by fitting a four-parameter sigmoidal curve to the data using Prism (GraphPad software).

With Nc1nccc2scc(-c3cccc(NS(=O)(=O)c4cc(Cl)cc(CO)c4Cl)c3F)c12 [US20230382915, Example 11] the IC50 [1] was under 100 nM.
In the case of CN1CCC(n2cc(-c3cccc(NS(=O)(=O)c4cc(Cl)cc(CO)c4Cl)c3F)c3c(N)ncnc32)CC1 [US20230382915, Example 17], the IC50 [1] is reported as under 100 nM and the IC50 (eIF-2-alpha kinase GCN2) is reported as under 100 nM.
In the case of Nc1nccc2occ(-c3cccc(NS(=O)(=O)c4cc(Cl)cc(CO)c4Cl)c3F)c12 [US20230382915, Example 12], the IC50 [1] is reported as under 100 nM.
